Data reported in ChEMBL document CHEMBL1201862, “PubChem BioAssay data set” (2004).
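Interpolation was linear, between the two tested concentrations surrounding the appropriate level; five concentrations were tested over 48 hours in 96-well plates. The concentration for 50% growth inhibition is given as GI50.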 Active and inactive are the calls of the source. No stated cut-off is given here; in the data, active = GI50 up to about 1.1 µM and inactive = higher.

What was measured:
Assay in all cases: inhibition of tumour cell growth, NCI panel, 48 h
[1] = test system: OVCAR-3
[2] = test system: OVCAR-4
[3] = test system: ACHN
[4] = test system: UACC-257
[5] = test system: NCI-H23
[6] = test system: KM12
[7] = test system: LOX IMVI
[8] = test system: CAKI-1
[9] = test system: DU-145
[10] = test system: 786-0
[11] = test system: Hs-578T
[12] = test system: A498
[13] = test system: HOP-92
[14] = test system: RPMI-8226
[15] = test system: MCF7
[16] = test system: UO-31
[17] = test system: MOLT-4
[18] = test system: HCT-15
[19] = test system: CCRF-CEM
[20] = test system: HCC 2998

| SMILES | GI50 [1] | GI50 [2] | GI50 [3] | GI50 [4] | GI50 [5] | GI50 [6] | GI50 [7] | GI50 [8] | GI50 [9] | GI50 [10] | GI50 [11] | GI50 [12] | GI50 [13] | GI50 [14] | GI50 [15] | GI50 [16] | GI50 [17] | GI50 [18] | GI50 [19] | GI50 [20] |
| --- | --- | --- | --- | --- | --- | --- | --- | --- | --- | --- | --- | --- | --- | --- | --- | --- | --- | --- | --- | --- |
| CCOC1=C/C(=N\Nc2ccc([N+](=O)[O-])cc2)CCC1 | 29.9 µM (inactive) | 13.8 µM (inactive) | 12.3 µM (inactive) | 63.8 µM (inactive) | 18.5 µM (inactive) | 14.3 µM (inactive) | 8.77 µM (inactive) | 28.8 µM (inactive) | > 100 µM (inactive) | 32.4 µM (inactive) | 38.5 µM (inactive) | 26.3 µM (inactive) | 39.8 µM (inactive) | 14.9 µM (inactive) | 18.3 µM (inactive) | 12.1 µM (inactive) | 4.83 µM (inactive) | 7.94 µM |  |  |
| CC(=O)c1cc2ccccc2[n+]([O-])c1N | > 100 µM (inactive) | > 100 µM (inactive) | > 100 µM (inactive) | > 100 µM (inactive) | > 100 µM (inactive) | > 100 µM (inactive) | > 100 µM (inactive) | > 100 µM (inactive) | > 100 µM (inactive) | > 100 µM (inactive) | > 100 µM (inactive) | > 100 µM (inactive) | > 100 µM (inactive) |  | > 100 µM (inactive) |  | > 100 µM (inactive) | > 100 µM | > 100 µM (inactive) | > 100 µM (inactive) |
| O=C1c2c(ccc3c2CCCC3)CC1Cc1ccc2c(c1)CCCC2 (centres undefined) | > 100 µM (inactive) | 28.8 µM (inactive) | 80.4 µM (inactive) | 28.3 µM (inactive) | 39.5 µM (inactive) | 59.2 µM (inactive) | 63.8 µM (inactive) |  | 83.4 µM (inactive) | 64 µM (inactive) | 20 µM (inactive) | > 100 µM (inactive) | 22 µM (inactive) | 21.6 µM (inactive) | 27.2 µM (inactive) | > 100 µM (inactive) | 35 µM (inactive) | 36.1 µM | 21.3 µM (inactive) | 34.6 µM (inactive) |
| COc1ccc2c3c([nH]c2c1)CCN(CCCC(=O)c1ccc(F)cc1)C3 | 18.8 µM (inactive) | 16.8 µM (inactive) | 17.1 µM (inactive) | 17.6 µM (inactive) | 19.4 µM (inactive) | 19.7 µM (inactive) | 12.7 µM (inactive) | 16 µM (inactive) | 18.7 µM (inactive) | 14.1 µM (inactive) | 6.56 µM (inactive) | 16 µM (inactive) |  | 16.7 µM (inactive) | 17.3 µM (inactive) | 14 µM (inactive) | 16.7 µM (inactive) | 20.1 µM | 19.8 µM (inactive) | 5.53 µM (inactive) |
| CSc1nc(N)c(NC2OC(CO)C(O)C2O)c(=O)[nH]1 (centres undefined) | > 100 µM (inactive) | > 100 µM (inactive) |  | > 100 µM (inactive) |  | > 100 µM (inactive) | > 100 µM (inactive) | > 100 µM (inactive) | > 100 µM (inactive) | > 100 µM (inactive) | > 100 µM (inactive) | > 100 µM (inactive) |  | > 100 µM (inactive) | > 100 µM (inactive) | > 100 µM (inactive) | > 100 µM (inactive) | > 100 µM | > 100 µM (inactive) |  |
| CC1(C)C(C(=O)OC(C#N)c2cccc(OCC(=O)OCc3ccccc3)c2)C1(C)C (centres undefined) | > 100 µM (inactive) | > 100 µM (inactive) | > 100 µM (inactive) | 55.6 µM (inactive) | 37.4 µM (inactive) | > 100 µM (inactive) | 95.7 µM (inactive) | > 100 µM (inactive) | > 100 µM (inactive) | > 100 µM (inactive) | > 100 µM (inactive) | > 100 µM (inactive) | > 100 µM (inactive) |  | 53 µM (inactive) | > 100 µM (inactive) | 18 µM (inactive) | > 100 µM | 19.5 µM (inactive) |  |
| CC1(C)CC(=O)C2=C(C1)c1c(ccc3ccccc13)NC2c1cn(Cc2ccc(Cl)cc2)c2ccccc12 (centres undefined) | 18.7 µM (inactive) | > 100 µM (inactive) | 61.9 µM (inactive) | 94.2 µM (inactive) | 80.7 µM (inactive) | > 100 µM (inactive) | 38.7 µM (inactive) | 13.3 µM (inactive) | > 100 µM (inactive) | > 100 µM (inactive) | 74.1 µM (inactive) | 2.55 µM (inactive) | 27.7 µM (inactive) | > 100 µM (inactive) | > 100 µM (inactive) | > 100 µM (inactive) | 58.1 µM (inactive) | > 100 µM | 55.7 µM (inactive) |  |
| CCCCCCNC(=S)N/N=C(\C)c1ccccn1 | < 0.01 µM (active) | 11.4 µM (inactive) | < 0.0113 µM (active) | 0.01 µM (active) | < 0.0311 µM (active) | 0.394 µM (active) | 0.0493 µM (active) | < 0.01 µM (active) | 1.52 µM (inactive) | < 0.0268 µM (active) | 20.7 µM (inactive) | 3.18 µM (inactive) |  | < 0.01 µM (active) | < 0.0415 µM (active) | 0.124 µM (active) | < 0.01 µM (active) | < 0.01 µM | < 0.01 µM (active) | 0.741 µM (active) |
| COc1ccc(NC2=CC(=O)C(=O)c3ccccc32)nn1 | 1.2 µM (inactive) | 1.41 µM (inactive) | 1.66 µM (inactive) | 1.72 µM (inactive) | 1.91 µM (inactive) | 0.361 µM (active) | 1.66 µM (inactive) | 2.19 µM (inactive) | 1.45 µM (inactive) | 1.86 µM (inactive) | 1.99 µM (inactive) | 1.73 µM (inactive) |  | 1.51 µM (inactive) | 0.557 µM (active) | 2.5 µM (inactive) | 0.546 µM (active) | 0.423 µM | 2.92 µM (inactive) | 6.68 µM (inactive) |
| CC(=O)/C(=N\N=C(N)N)c1ccccc1 | > 100 µM (inactive) | > 100 µM (inactive) | > 100 µM (inactive) | > 100 µM (inactive) | > 100 µM (inactive) | > 100 µM (inactive) | > 100 µM (inactive) | > 100 µM (inactive) | > 100 µM (inactive) | > 100 µM (inactive) | > 100 µM (inactive) | > 100 µM (inactive) | > 100 µM (inactive) | > 100 µM (inactive) | > 100 µM (inactive) | > 100 µM (inactive) | > 100 µM (inactive) | > 100 µM |  | 28.1 µM (inactive) |
| Clc1sc(Cl)c2c1[C@H](Cl)C[C@@H]2Cl | 24.2 µM (inactive) | 23.6 µM (inactive) | 33.2 µM (inactive) | 24.3 µM (inactive) | 24.4 µM (inactive) | 25.6 µM (inactive) | 9.46 µM (inactive) | 20.2 µM (inactive) | 27.5 µM (inactive) | 19.6 µM (inactive) | 15.9 µM (inactive) | 84.1 µM (inactive) | 6.58 µM (inactive) |  | 6.52 µM (inactive) | 14.6 µM (inactive) | 50.2 µM (inactive) | 20.2 µM | 6.82 µM (inactive) | 15.2 µM (inactive) |
| C[N+]1(Cc2ccc(Cl)c(Cl)c2)CCCC1C1CCCN(Cc2ccc(Cl)c(Cl)c2)C1 (centres undefined) | > 100 µM (inactive) | > 100 µM (inactive) | > 100 µM (inactive) | > 100 µM (inactive) | > 100 µM (inactive) | > 100 µM (inactive) | > 100 µM (inactive) | > 100 µM (inactive) | > 100 µM (inactive) | > 100 µM (inactive) | > 100 µM (inactive) | > 100 µM (inactive) | > 100 µM (inactive) | > 100 µM (inactive) | > 100 µM (inactive) | > 100 µM (inactive) | > 100 µM (inactive) | > 100 µM |  | > 100 µM (inactive) |
| CC(=O)Nc1c(C)cc2c(nc3n2CCC3OC(C)=O)c1[N+](=O)[O-] (centres undefined) | > 100 µM (inactive) | > 100 µM (inactive) | > 100 µM (inactive) | > 100 µM (inactive) | > 100 µM (inactive) | > 100 µM (inactive) | > 100 µM (inactive) | > 100 µM (inactive) | > 100 µM (inactive) | > 100 µM (inactive) | > 100 µM (inactive) | > 100 µM (inactive) | > 100 µM (inactive) | > 100 µM (inactive) | > 100 µM (inactive) | > 100 µM (inactive) | > 100 µM (inactive) | > 100 µM | > 100 µM (inactive) |  |
| Nc1nc(N)c(/N=N/c2ccc(C(=O)O)c(O)c2)c(N)n1 | 10.4 µM (inactive) | 18.5 µM (inactive) | > 100 µM (inactive) | > 100 µM (inactive) | > 100 µM (inactive) | > 100 µM (inactive) | > 100 µM (inactive) | > 100 µM (inactive) | > 100 µM (inactive) | > 100 µM (inactive) | > 100 µM (inactive) | > 100 µM (inactive) | 92.5 µM (inactive) | > 100 µM (inactive) | 61.4 µM (inactive) | > 100 µM (inactive) | > 100 µM (inactive) | > 100 µM | > 100 µM (inactive) |  |
| O=C(Cc1ccccc1)NCCc1ccc(O)c(O)c1 | 35 µM (inactive) | 13 µM (inactive) | 64.4 µM (inactive) | > 100 µM (inactive) | 52.6 µM (inactive) | > 100 µM (inactive) | 44.7 µM (inactive) |  | > 100 µM (inactive) | 93.3 µM (inactive) | > 100 µM (inactive) | > 100 µM (inactive) | > 100 µM (inactive) | 15.6 µM (inactive) | > 100 µM (inactive) | 41.2 µM (inactive) | 16.6 µM (inactive) | 54.1 µM | 5.14 µM (inactive) | > 100 µM (inactive) |
